PMC6272579, “A Three-Enzyme-System to Degrade Curcumin to Natural Vanillin” (Molecules, 2015)

Target: T1, CAL (Moesziomyces antarcticus, UniProt P41365)
T1 construct: immobilised commercial lipase Novozyme_435 (known to be lipase B)
T1 sequence (P41365 26-342): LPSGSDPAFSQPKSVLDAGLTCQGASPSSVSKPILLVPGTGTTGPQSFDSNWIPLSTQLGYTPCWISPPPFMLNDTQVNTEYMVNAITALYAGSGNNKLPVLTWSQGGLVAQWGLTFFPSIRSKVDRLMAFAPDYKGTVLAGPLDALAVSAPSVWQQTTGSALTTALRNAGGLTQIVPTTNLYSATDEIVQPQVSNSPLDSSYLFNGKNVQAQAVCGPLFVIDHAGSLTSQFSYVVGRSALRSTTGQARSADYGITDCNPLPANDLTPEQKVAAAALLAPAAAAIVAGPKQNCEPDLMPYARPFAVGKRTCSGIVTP
Experiment: lipase-catalysed acetylation, LC-MS
Type: biochemical
Conditions: immobilised enzyme; ethyl acetate/toluene 10:90, 4% acetate buffer pH 6, 40 °C; acyl donor geranyl acetate 1:50; acyl donor to curcumin

CC(=O)OC/C=C(\C)CCC=C(C)C [geranyl acetate]
lipase-catalysed acetylation, LC-MS: using geranyl acetate as the acyl donor
